The MIC is the lowest concentration found to suppress growth. Low values mean a more susceptible organism, high ones a less susceptible organism.

Values after ≈ are worked out from the molar mass of the structure shown.

For one data set, the system named is Vibrio alginolyticus. Description: Antibacterial activity against Vibrio alginolyticus by well diffusion method. It counts as functional.
Details: not given; call rule not given here
As for `O=C(N[C@H](CO)[C@H](O)c1ccc([N+](=O)[O-])cc1)C(Cl)Cl` [CHLORAMPHENICOL], it took 4 µg/mL (≈ 12.4 µM) to inhibit growth (MIC).

Test system in the next data set: not listed separately
Put plainly: (§1) Toxicity in brine shrimp assessed as mortality. It counts as organism-based. Particulars: artemia salina, in vivo; read-out: LD50 (the source's name).
Consider `C[C@@H]1NC(=O)[C@H](Cc2c[nH]c3ccccc23)NC1=O`, for which the LC50 came to 25.5 µM.

`C=CC(C)(C)c1[nH]c2c(C[C@H](O)C(C)(C)O)cccc2c1/C=C1\NC(=O)[C@H](C)NC1=O`: the LC50 turned out to be 2.4 µM.

Consider `C=CC(C)(C)c1[nH]c2c(C[C@H](O)C(C)(C)OC)cccc2c1/C=C1\NC(=O)[C@H](C)NC1=O`, for which the LC50 came out at 29.8 µM.

For the molecule `C=CC(C)(C)c1[nH]c2ccccc2c1/C=C1\NC(=O)C(=O)NC1=O`, the LC50 stood at 3.9 µM.

Regarding `C=CC(C)(C)c1[nH]c2c(C[C@H](O)C(C)(C)O)cccc2c1C[C@@H]1NC(=O)[C@H](C)NC1=O`, the LC50 was determined as 16.5 µM.

With `C=CC(C)(C)c1[nH]c2c(CC=C(C)C)cc(CC=C(C)C)c(CC=C(C)C)c2c1/C=C1\NC(=O)[C@H](C)NC1=O`, the LC50 amounted to 3.5 µM.

For `C=CC(C)(C)c1[nH]c2ccccc2c1/C=C1\NC(=O)C2(C=C3c4cc(O)cc(O)c4C(=O)c4c(O)cc(C)c(c43)O2)NC1=O` (stereo unspecified), the LC50 is 16.7 µM.

On to `C=CC(C)(C)c1[nH]c2ccccc2c1/C=C1\NC(=O)C2(C=C3c4cc(O)cc(OC)c4C(=O)c4c(O)cc(C)c(c43)O2)NC1=O` (stereo unspecified), for which the LC50 was 9.8 µM.

Take `COc1cc2c(c(OC)c1OC)-c1ccc(OC)c(=O)cc1[C@@H](NC(C)=O)CC2` [COLCHICINE]: the LC50 turned out to be 19.4 µM.

With `C=CC(C)(C)c1[nH]c2ccc(CC=C(C)C)cc2c1/C=C1\NC(=O)[C@H](C)NC1=O` [ISOECHINULIN A], the LC50 turned out to be 11.7 µM.

Regarding `C=CC(C)(C)c1[nH]c2ccc(CC(=O)C(C)C)cc2c1/C=C1\NC(=O)[C@H](C)NC1=O` [VARIECOLORIN E], the LC50 turned out to be 24 µM.

For `C=CC(C)(C)c1[nH]c2c(CC=C(C)C)cccc2c1/C=C1\NC(=O)[C@H](C)NC1=O` [VARIECOLORIN G], the LC50 was found to be 22 µM.

The next data set has as its system Artemia salina. The description is as §1. Format: organism-based. The settings on record: in vivo.
For the molecule `C=CC(C)(C)c1[nH]c2c(CC=C(C)C)cc(CC=C(C)C)cc2c1C[C@@H]1NC(=O)[C@H](C)NC1=O` [ECHINULIN], the LD50 entry is listed as “Not Active”.

For the molecule `C=CC(C)(C)c1[nH]c2ccc(CC=C(C)C)cc2c1C[C@@H]1NC(=O)[C@H](C)NC1=O` [TARDIOXOPIPERAZINE A], the LD50 entry was “Not Active”.

Regarding `C=CC(C)(C)c1[nH]c2ccc(CC=C(C)C)c(CC=C(C)C)c2c1C[C@@H]1NC(=O)[C@H](C)NC1=O` [VARIECOLORIN L], the LD50 result is on record as “Not Active”.

The values above are taken from ChEMBL document CHEMBL3576765, “Rubrumazines A-C, Indolediketopiperazines of the Isoechinulin Class from Eurotium rubrum MA-150, a Fungus Obtained from Marine Mangrove-Derived Rhizospheric Soil” (J Nat Prod, 2015).
